Experimental data from the supplement of paper PMC12463676, “Small-molecule dissolution of stress granules by redox modulation benefits ALS models” (Nature Chemical Biology, 2025).

Legend:
[1] = compound: NC(=O)CCCCC1CCSS1 [lipoamide]; experiment: thermal stability z-score vs DMSO; higher = more thermally stabilized by treatment; details: HeLa, lipoamide concentration 100 µM
Procedure: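 Cellular thermal proteome profiling in HeLa cells. Cells were treated with 100 µM lipoamide for 1 h, with or without 1 mM arsenate for a further 1 h, then heated to ten temperatures (37-66.3 °C), and soluble protein was quantified by TMT mass spectrometry relative to 0.1% DMSO controls. The thermal stability score (sum of log2 fold changes minus the abundance score) was transformed to a z-score; mean of n = 3 experiments.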

[2] = compound: O=[As]([O-])(O)O.[K+] [potassium arsenate]; experiment: as above; details: HeLa; arsenate concentration 1 mM
Procedure: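 Cellular thermal proteome profiling in HeLa cells treated with 1 mM arsenate for 1 h (DMSO pretreatment), heated to ten temperatures (37-66.3 °C). Soluble protein was quantified by TMT mass spectrometry relative to DMSO controls; the thermal stability score was transformed to a z-score; mean of n = 3 experiments.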

[3] = arsenate co-treatment: 1 mM arsenate 1 h
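Further: each temperature applied for 3 min, abundance score taken as mean log2 fold change at the two lowest temperatures, z-score obtained by mean subtraction and division by SD.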

UniProt Q05397, sequence (Q05397 whole entry, looked up): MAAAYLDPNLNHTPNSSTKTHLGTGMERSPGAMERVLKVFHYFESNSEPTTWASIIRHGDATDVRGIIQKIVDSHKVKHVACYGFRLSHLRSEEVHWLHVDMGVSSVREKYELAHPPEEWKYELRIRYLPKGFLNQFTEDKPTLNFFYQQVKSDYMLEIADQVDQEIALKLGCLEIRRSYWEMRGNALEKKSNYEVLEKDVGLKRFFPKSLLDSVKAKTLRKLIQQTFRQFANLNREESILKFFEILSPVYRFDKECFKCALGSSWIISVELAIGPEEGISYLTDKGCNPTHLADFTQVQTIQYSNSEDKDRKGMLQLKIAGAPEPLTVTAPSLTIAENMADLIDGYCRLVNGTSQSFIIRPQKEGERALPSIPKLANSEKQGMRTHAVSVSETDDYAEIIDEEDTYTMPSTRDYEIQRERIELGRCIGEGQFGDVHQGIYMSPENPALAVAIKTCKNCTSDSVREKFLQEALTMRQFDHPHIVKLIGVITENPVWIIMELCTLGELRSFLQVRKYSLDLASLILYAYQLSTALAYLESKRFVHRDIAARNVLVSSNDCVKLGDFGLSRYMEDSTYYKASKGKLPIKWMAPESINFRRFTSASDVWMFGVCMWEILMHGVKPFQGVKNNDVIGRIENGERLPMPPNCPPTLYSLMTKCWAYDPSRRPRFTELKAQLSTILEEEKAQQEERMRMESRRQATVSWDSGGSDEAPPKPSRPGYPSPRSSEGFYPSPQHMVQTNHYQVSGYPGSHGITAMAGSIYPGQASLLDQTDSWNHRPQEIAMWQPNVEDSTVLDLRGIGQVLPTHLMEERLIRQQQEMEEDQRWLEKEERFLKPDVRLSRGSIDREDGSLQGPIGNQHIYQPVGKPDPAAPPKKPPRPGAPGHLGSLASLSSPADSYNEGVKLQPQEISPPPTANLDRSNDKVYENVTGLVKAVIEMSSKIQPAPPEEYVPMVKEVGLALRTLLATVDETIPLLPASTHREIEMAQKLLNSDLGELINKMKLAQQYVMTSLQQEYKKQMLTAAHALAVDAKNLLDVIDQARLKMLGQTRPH
UniProt P49023, sequence (P49023 whole entry): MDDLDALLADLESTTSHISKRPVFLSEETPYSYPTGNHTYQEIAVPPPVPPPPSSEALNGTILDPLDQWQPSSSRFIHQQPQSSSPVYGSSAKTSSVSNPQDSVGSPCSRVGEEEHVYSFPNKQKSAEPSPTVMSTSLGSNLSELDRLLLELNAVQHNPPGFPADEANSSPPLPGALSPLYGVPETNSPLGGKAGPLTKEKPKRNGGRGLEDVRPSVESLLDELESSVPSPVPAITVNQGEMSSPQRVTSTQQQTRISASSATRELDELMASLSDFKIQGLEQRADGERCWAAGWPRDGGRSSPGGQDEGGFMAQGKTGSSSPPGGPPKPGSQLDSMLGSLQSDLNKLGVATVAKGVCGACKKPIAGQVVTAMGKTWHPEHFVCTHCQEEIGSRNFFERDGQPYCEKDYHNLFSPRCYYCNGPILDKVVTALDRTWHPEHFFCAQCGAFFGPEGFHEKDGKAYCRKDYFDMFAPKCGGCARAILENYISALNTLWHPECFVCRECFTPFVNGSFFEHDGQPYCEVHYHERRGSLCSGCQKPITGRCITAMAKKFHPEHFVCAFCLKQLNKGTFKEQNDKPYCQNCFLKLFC
UniProt P15151, sequence (P15151 whole entry): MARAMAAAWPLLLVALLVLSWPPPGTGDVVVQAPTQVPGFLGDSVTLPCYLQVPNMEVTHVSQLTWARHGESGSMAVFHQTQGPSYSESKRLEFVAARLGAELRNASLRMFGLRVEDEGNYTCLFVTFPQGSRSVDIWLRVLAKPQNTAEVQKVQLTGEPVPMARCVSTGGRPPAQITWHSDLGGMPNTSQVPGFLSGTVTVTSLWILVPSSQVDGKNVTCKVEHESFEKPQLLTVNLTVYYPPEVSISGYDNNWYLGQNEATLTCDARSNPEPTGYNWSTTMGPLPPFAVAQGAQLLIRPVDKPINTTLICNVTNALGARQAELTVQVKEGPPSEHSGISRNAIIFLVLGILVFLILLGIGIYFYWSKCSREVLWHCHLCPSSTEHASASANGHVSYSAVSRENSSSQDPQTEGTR
UniProt Q12913, sequence (Q12913 whole entry): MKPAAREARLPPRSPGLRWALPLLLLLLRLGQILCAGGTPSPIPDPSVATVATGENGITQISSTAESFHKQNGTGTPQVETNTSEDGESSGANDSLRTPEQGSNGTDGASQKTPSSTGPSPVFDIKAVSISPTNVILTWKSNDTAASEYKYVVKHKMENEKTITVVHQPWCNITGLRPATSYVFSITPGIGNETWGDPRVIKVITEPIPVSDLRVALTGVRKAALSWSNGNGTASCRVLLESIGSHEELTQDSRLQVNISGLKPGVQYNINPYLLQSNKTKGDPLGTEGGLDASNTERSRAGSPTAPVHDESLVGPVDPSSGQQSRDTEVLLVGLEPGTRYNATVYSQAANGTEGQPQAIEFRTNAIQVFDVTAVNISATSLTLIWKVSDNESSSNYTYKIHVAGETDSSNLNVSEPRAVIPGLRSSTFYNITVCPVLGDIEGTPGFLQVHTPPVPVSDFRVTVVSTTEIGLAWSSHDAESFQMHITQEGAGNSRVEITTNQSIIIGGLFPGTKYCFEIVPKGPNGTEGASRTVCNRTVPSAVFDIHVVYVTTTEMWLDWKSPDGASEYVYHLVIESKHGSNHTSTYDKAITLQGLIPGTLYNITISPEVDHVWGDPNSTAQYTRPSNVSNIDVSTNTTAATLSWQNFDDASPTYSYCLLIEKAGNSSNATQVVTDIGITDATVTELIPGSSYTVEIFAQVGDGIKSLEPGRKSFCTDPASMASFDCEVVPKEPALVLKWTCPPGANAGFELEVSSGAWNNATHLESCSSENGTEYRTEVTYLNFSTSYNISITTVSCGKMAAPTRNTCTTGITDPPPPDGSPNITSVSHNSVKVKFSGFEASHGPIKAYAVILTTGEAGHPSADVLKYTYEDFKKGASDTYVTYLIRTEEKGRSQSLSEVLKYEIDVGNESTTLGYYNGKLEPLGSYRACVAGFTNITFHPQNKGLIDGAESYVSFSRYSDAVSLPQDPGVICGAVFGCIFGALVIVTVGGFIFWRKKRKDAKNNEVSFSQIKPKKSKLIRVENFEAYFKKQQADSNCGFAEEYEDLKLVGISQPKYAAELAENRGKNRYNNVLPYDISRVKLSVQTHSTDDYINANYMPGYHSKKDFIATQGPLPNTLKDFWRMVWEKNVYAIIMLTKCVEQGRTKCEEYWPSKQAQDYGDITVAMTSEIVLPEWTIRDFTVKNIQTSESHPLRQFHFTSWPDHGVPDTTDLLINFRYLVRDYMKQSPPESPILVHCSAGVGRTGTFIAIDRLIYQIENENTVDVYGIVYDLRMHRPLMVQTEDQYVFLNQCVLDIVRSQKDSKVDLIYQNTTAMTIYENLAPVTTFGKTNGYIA
UniProt Q9P2B2, sequence (Q9P2B2 whole entry): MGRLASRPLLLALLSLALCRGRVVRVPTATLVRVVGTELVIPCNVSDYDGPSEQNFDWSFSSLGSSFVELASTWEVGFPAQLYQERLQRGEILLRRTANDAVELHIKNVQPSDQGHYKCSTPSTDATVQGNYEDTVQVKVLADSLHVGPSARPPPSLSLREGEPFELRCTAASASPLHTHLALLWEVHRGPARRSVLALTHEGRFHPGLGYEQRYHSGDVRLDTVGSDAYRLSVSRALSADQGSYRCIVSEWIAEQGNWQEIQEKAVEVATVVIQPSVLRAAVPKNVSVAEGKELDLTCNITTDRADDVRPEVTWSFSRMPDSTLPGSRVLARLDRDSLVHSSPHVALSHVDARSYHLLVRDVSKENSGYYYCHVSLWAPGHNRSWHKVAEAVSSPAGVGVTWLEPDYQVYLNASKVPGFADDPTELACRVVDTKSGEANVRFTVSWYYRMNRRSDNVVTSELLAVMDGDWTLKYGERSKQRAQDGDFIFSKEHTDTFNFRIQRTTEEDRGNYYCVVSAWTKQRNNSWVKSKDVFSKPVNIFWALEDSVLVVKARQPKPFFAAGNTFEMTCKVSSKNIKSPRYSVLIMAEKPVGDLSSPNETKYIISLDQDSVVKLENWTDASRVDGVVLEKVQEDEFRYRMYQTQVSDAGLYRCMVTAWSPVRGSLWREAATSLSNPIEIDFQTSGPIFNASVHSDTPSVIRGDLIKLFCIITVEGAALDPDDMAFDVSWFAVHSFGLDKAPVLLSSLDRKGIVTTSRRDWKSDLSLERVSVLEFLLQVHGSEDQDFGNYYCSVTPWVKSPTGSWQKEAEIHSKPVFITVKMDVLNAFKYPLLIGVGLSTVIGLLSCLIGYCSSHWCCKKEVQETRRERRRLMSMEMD
UniProt Q9BRP8, sequence (Q9BRP8 whole entry): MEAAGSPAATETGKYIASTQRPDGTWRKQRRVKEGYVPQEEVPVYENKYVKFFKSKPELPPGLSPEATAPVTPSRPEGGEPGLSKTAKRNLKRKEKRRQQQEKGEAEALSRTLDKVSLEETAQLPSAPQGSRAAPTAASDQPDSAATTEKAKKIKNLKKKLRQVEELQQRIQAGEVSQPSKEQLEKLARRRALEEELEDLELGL
UniProt Q00577, sequence (Q00577 whole entry): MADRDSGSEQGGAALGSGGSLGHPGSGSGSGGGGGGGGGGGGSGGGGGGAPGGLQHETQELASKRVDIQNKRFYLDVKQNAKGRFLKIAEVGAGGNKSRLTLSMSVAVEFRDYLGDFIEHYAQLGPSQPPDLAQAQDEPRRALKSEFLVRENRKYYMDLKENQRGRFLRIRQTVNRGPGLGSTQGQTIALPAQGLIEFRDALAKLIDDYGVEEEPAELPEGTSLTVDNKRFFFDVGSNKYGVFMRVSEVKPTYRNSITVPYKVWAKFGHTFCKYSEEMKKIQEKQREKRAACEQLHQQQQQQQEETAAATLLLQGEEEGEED
UniProt P06454, sequence (P06454 whole entry): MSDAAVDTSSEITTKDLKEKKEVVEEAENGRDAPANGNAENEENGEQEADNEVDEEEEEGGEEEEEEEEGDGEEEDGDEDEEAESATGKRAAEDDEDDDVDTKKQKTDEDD
UniProt P20962, sequence (P20962 whole entry): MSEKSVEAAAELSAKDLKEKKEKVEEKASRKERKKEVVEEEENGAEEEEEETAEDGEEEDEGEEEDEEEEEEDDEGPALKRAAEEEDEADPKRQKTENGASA

Row | Target | thermal stability z-score [1, 3] | thermal stability z-score ([1]; arsenate co-treatment: none) | thermal stability z-score [2]
1 | PTER (UniProt Q96BW5) | -0.116 | -0.966 | -0.311
2 | PTGES2 (UniProt Q9H7Z7) | -0.199 | 0.0528 | 0.178
3 | PTGES3 (UniProt Q15185) | 0.0467 | 0.127 | -0.454
4 | PTGFRN (UniProt Q9P2B2) | 0.216 | 0.0155 | 0.0412
5 | PTGR1 (UniProt Q14914) | 1.49 | 1.67 | 0.672
6 | PTGR2 (UniProt Q8N8N7) | 2.64 | 1.03 | 0.744
7 | PTGS2 (UniProt P35354) | -0.361 | 0.261 | 0.269
8 | PTK2 (UniProt Q05397) | 0.189 | 0.122 | -0.0048
9 | PTMA (UniProt P06454) | 1.3 | 1.23 | 0.425
10 | PTMS (UniProt P20962) | 0.606 | 0.808 | -0.629
11 | PTP4A1 (UniProt Q93096) | 1.33 | 1.25 | 0.626
12 | PTP4A2 (UniProt Q12974) | 1.78 | 1.15 | 0.861
13 | PTPMT1 (UniProt Q8WUK0) | 0.619 | 0.326 | 0.767
14 | PTPN1 (UniProt P18031) | -1.02 | -0.578 | 0.228
15 | PTPN2 (UniProt P17706) | 0.0491 | 0.308 | 0.95
16 | PTPN3 (UniProt P26045) | -0.085 | -0.294 | -0.31
17 | PTPN6 (UniProt P29350) | -0.0229 | 0.0958 | -0.0221
18 | PTPN9 (UniProt P43378) | -0.0496 | 0.0634 | 0.0393
19 | PTPN11 (UniProt Q06124) | 0.431 | 0.267 | -0.559
20 | PTPN12 (UniProt Q05209) | -0.407 | -0.595 | -0.087
21 | PTPN23 (UniProt Q9H3S7) | -0.214 | -0.0347 | 0.691
22 | PTPRF (UniProt P10586) | -0.381 | -0.381 | -0.656
23 | PTPRJ (UniProt Q12913) | 1.03 | -0.0729 | -0.764
24 | PTPRK (UniProt Q15262) | -1.17 | -0.25 | 0.129
25 | PTPRM (UniProt P28827) | 0.782 | 1.16 | 0.672
26 | PTPRS (UniProt Q13332) | -0.214 | -0.198 | -0.0489
27 | PTRF (UniProt Q6NZI2) | 0.213 | 0.0879 | 0.778
28 | PTRH1 (UniProt Q86Y79) | 0.0851 | 0.0188 | -0.214

Row | Target | thermal stability z-score [1, 3] | thermal stability z-score ([1]; arsenate co-treatment: none) | thermal stability z-score [2]
29 | PTRH2 (UniProt Q9Y3E5) | -0.239 | -0.143 | -0.0653
30 | PTS (UniProt Q03393) | 0.382 | -0.301 | 0.981
31 | PTTG1 (UniProt O95997) | -1.19 | -1.5 | -1.58
32 | PTTG1IP (UniProt P53801) | -0.059 | -0.0338 | -0.2
33 | PUDP (UniProt Q08623) | 0.292 | -0.0843 | -1.3
34 | PUF60 (UniProt Q9UHX1) | 0.11 | 0.816 | 0.789
35 | PUM1 (UniProt Q14671) | -0.249 | -0.0302 | -0.174
36 | PUM2 (UniProt Q8TB72) | -0.565 | 0.382 | -0.343
37 | PUM3 (UniProt Q15397) | 0.119 | -0.0918 | 0.369
38 | PURA (UniProt Q00577) | 0.195 | -0.028 | -0.0389
39 | PURB (UniProt Q96QR8) | 0.083 | 0.15 | 0.364
40 | PUS1 (UniProt Q9Y606) | -0.761 | -0.18 | 0.257
41 | PUS3 (UniProt Q9BZE2) | 0.378 | -0.095 | 2.26
42 | PUS7 (UniProt Q96PZ0) | -0.447 | 0.26 | 0.651
43 | PUS7L (UniProt Q9H0K6) | 0.3 | 0.174 | -0.0157
44 | PVR (UniProt P15151) | -0.158 | -0.0762 | 0.0637
45 | PWP1 (UniProt Q13610) | -0.0751 | -0.259 | -2.52
46 | PWP2 (UniProt Q15269) | -0.256 | 0.154 | 0.864
47 | PXDN (UniProt Q92626) | -1.65 | -1.61 | 0.0514
48 | PXN (UniProt P49023) | -0.261 | -0.432 | -2
49 | PYCR1 (UniProt P32322) | -0.0172 | -0.299 | -0.368
50 | PYCR2 (UniProt Q96C36) | 0.43 | -0.4 | -0.765
51 | PYCRL (UniProt Q53H96) | 0.827 | 0.862 | 0.43
52 | PYGB (UniProt P11216) | 0.243 | 0.0472 | -1.24
53 | PYGL (UniProt P06737) | 0.968 | 0.345 | -0.513
54 | PYM1 (UniProt Q9BRP8) | 0.618 | -0.287 | -0.578
55 | PYROXD1 (UniProt Q8WU10) | 0.569 | 0.443 | -1.15
